Laboratory results taken from US20100216751A1 (priority 2007, published 2010).
Values joined by “and” are separate entries in the source; they are usually repeats but may differ in a detail not shown here. Identical values can stand only once.

Assay: Pharmacokinetic evaluation of liquid bevirimat dosage forms, oral gavage, male Cynomolgus monkeys
Experimental: Six male Cynomolgus monkeys having an initial body weight of about 3.5 to about 4.5 kg are allowed 7 days to acclimate to their individual housing units. Monkeys are supplied with water and a commercial diet ad libitum prior to the study initiation. Food is withheld from the monkeys for a minimum of twelve hours before the study and during the study until four hours postdose when food is returned. Water is supplied ad libitum.
Test formulations are administered to the monkeys at time 0 on appropriate days. Test formulations will be dosed orally via oral gavage or intravenously.
Samples are drawn at the frequencies indicated below. Each blood sample (0.5 mL) is collected from the monkey's saphenous vein via a butterfly catheter and placed into a chilled polypropylene tube containing sodium heparin as the anticoagulant. Blood samples are centrifuged at a temperature of 4° C. at a speed of 3,000 rpm for 15 minutes. All samples are maintained chilled throughout processing. Plasma is collected after centrifugation, pipetted into a 2-mL polypropylene microtube, and frozen on dry-ice pending analytical evaluation.

[1] = 12.5 mg FAE/mL in 10% HPβCD, 50 mg FAE/monkey oral gavage, monkeys 186,116,120,AVG
[2] = 12.5 mg FAE/mL in 15% EtOH:0.5% TPGS:15% PG:5% Glycerin, 0.2% Povidone K90, 50 mg FAE/monkey oral gavage, monkeys 117,118,119,AVG
[3] = 12.5 mg FAE/mL in 15% Ethanol, 30% PG, 10% Glycerin, 50 mg FAE oral gavage, monkeys 117,118,119,AVG
[4] = 12.5 mg FAE/mL in 40% PG, 20% Glycerin, 0.25% Tween80, 0.2% Povidone K15, 50 mg FAE oral gavage, monkeys 186,116,120,AVG
[5] = 12.5 mg FAE/mL in 40% PG, 20% Glycerin, 1% TPGS, 0.25% Tween80, 0.2% Povidone K15, 50 mg FAE/monkey oral gavage, monkeys 117,118,119,AVG
[6] = 12.5 mg FAE/mL in 40% PG, 20% glycerin, 5% Vitamin E TPGS, 0.25% Tween80, 0.20% Plasdone C15, 10 mM sodium phosphate pH 8.0, 200 mg/monkey (50.0 mg/kg) oral gavage, monkeys 181,182,AVG
[7] = 50 mg FAE/mL in 40% EtOH:40% PG:20% Glycerol, 50 mg FAE/monkey oral gavage, monkeys 117,118,119,AVG
[8] = male, cynomolgus monkey, in vivo, 50 mg/kg, pH 8
[9] = male, cynomolgus monkey, in vivo, po, 50 mg FAE/monkey

C=C(C)[C@@H]1CC[C@]2(C(=O)O)CC[C@]3(C)[C@H](CC[C@@H]4[C@@]5(C)CC[C@H](OC(=O)CC(C)(C)C(=O)O)C(C)(C)[C@@H]5CC[C@]43C)[C@@H]12 [Bevirimat, 3-O-(3′,3′-dimethylsuccinyl)betulinic acid]
AUCall [1]: 392.275 µg·h/mL
Cmax [1]: 56.4 µg/mL
Dnzed AUCall [1]: 38150 ng·h/mL/mg/kg
t1/2 [1]: 7.0 h and 11.4 h and 9.4 h
t1/2 (12.5 mg FAE/mL in 15% EtOH:0.5% TPGS:15% PG:5% Glycerin, 50 mg FAE/monkey oral gavage, monkeys 117,118,119,AVG): 11.3 h and 11.5 h and 11.6 h
AUCall [2]: 270.194 µg·h/mL and 344.629 µg·h/mL and 367.461 µg·h/mL
Cmax [2]: 65.6 µg/mL and 52.8 µg/mL and 56.567 µg/mL
t1/2 [2]: 14.5 h and 8.7 h and 11.8 h
Cmax [3]: 57.2 µg/mL and 97.4 µg/mL and 72.9 µg/mL
t1/2 [3]: 10.4 h and 9.0 h and 9.4 h
Dnzed AUCall [4]: 17281 ng·h/mL/mg/kg and 15596 ng·h/mL/mg/kg
t1/2 [4]: 8.1 h and 10.2 h and 8.7 h
t1/2 (12.5 mg FAE/mL in 40% PG, 20% Glycerin, 1% TPGS, 0.25% Tween80, 50 mg FAE/monkey oral gavage, monkeys 186,116,120,AVG): 9.9 h and 11.1 h and 10.3 h
Cmax [5]: 84.8 µg/mL and 77.2 µg/mL and 85.1 µg/mL
t1/2 [5]: 7.9 h and 6.4 h and 8.2 h
AUCall [6]: 1681.058 µg·h/mL
Cmax [6]: 174 µg/mL and 199.5 µg/mL
Dnzed AUCall [6]: 33621 ng·h/mL/mg/kg
t1/2 [6]: 10.2 h and 9.2 h
t1/2 (25 mg/mL in 30% EtOH:1% TPGS:30% PG:10% Glycerin, 50 mg FAE/monkey oral gavage, monkeys 117,118,119,AVG): 17.8 h and 9.0 h and 12.5 h
Cmax [7]: 24.9 µg/mL and 33.1 µg/mL and 27.933 µg/mL
t1/2 [7]: 7.8 h and 8.5 h
t1/2 (50 mg FAE/mL in 40% PG:20% Glycerin:1% TPGS:5% Tween 80 in SWFI, 50 mg FAE/monkey oral gavage, monkeys 117,118,119,AVG): 11.8 h and 14.6 h and 12.8 h
t1/2 (10% HPβCD, 50 mg FAE/monkey oral gavage, monkeys 117,118,119,AVG): 10.2 h and 11.0 h and 10.4 h
bioavailability (male, cynomolgus monkey, in vivo): ~55%
concentration at 1 hr [8]: 108 µg/mL
concentration at 2 hr [8]: 225 µg/mL
concentration at 4 hr [8]: 163 µg/mL
concentration at 6 hr [8]: 107 µg/mL
concentration at 8 hr [8]: 70.3 µg/mL
concentration at 12 hr [8]: 47500 ng/mL
concentration at 0.25 hr (male, cynomolgus monkey, in vivo, po, 50 mg FAE): 3060 ng/mL
concentration at 0.25 hr (male, cynomolgus monkey, in vivo, po, 50 mg FAE, Plasma concentration, 0.25 hr, 12.5 mg FAE/mL in 15% Ethanol, 30% PG, 10% Glycerin, 50 mg FAE oral gavage, monkeys 117,118,119,AVG, BLOQ=below 50 ng/mL): 66 ng/mL
concentration at 4 hr (male, cynomolgus monkey, in vivo, po, 50 mg FAE, Plasma concentration, 4.0 hr, 12.5 mg FAE/mL in 15% Ethanol, 30% PG, 10% Glycerin, 50 mg FAE oral gavage, monkeys 117,118,119,AVG): 46 µg/mL
concentration at 6 hr (male, cynomolgus monkey, in vivo, po, 50 mg FAE, Plasma concentration, 6.0 hr, 12.5 mg FAE/mL in 15% Ethanol, 30% PG, 10% Glycerin, 50 mg FAE oral gavage, monkeys 117,118,119,AVG): 44.7 µg/mL
concentration at 24 hr (male, cynomolgus monkey, in vivo, po, 50 mg FAE, Plasma concentration, 24 hr, 12.5 mg FAE/mL in 40% PG, 20% Glycerin, 0.25% Tween80, 0.2% Povidone K15, 50 mg FAE oral gavage, monkeys 186,116,120,AVG): 434 ng/mL
concentration at 48 hr (male, cynomolgus monkey, in vivo, po, 50 mg FAE, Plasma concentration, 48 hr, 12.5 mg FAE/mL in 40% PG, 20% Glycerin, 0.25% Tween80, 0.2% Povidone K15, 50 mg FAE oral gavage, monkeys 186,116,120,AVG): 60.3 ng/mL
concentration at 72 hr (male, cynomolgus monkey, in vivo, po, 50 mg FAE, Plasma concentration, 72 hr, 12.5 mg FAE/mL in 15% Ethanol, 30% PG, 10% Glycerin, 50 mg FAE oral gavage, monkeys 117,118,119,AVG, BLOQ=below 50 ng/mL): 179 ng/mL
concentration at 1 hr [9]: 85.2 µg/mL
concentration at 2 hr [9]: 93.3 µg/mL
concentration at 4 hr [9]: 62.7 µg/mL
concentration at 0.25 hr (male, cynomolgus monkey, in vivo, po, 50 mg FAE/monkey, Plasma concentration, 0.25 hr, 25 mg/mL in 30% EtOH:1% TPGS:30% PG:10% Glycerin, 50 mg FAE/monkey oral gavage, monkeys 117,118,119,AVG, BLOQ=below 50 ng/mL): 147 ng/mL
concentration at 0.25 hr (male, cynomolgus monkey, in vivo, po, 50 mg FAE/monkey, Plasma concentration, 0.25 hr, 50 mg FAE/mL in 40% EtOH:40% PG:20% Glycerol, 50 mg FAE/monkey oral gavage, monkeys 117,118,119,AVG, BLOQ=below 50 ng/mL): 75.5 ng/mL
concentration at 0.5 hr (male, cynomolgus monkey, in vivo, po, 50 mg FAE/monkey, Plasma concentration, 0.50 hr, 12.5 mg FAE/mL in 40% PG, 20% Glycerin, 1% TPGS, 0.25% Tween80, 0.2% NaCMC, 50 mg FAE/monkey oral gavage, monkeys 117,118,119,AVG): 12500 ng/mL
concentration at 1 hr (male, cynomolgus monkey, in vivo, po, 50 mg FAE/monkey, Plasma concentration, 1.0 hr, 12.5 mg FAE/mL in 10% HPβCD, 50 mg FAE/monkey oral gavage, monkeys 186,116,120,AVG): 56.4 µg/mL
concentration at 1 hr (male, cynomolgus monkey, in vivo, po, 50 mg FAE/monkey, Plasma concentration, 1.0 hr, 12.5 mg FAE/mL in 40% PG, 20% Glycerin, 1% TPGS, 0.25% Tween80, 50 mg FAE/monkey oral gavage, monkeys 186,116,120,AVG): 65.5 µg/mL
concentration at 1 hr (male, cynomolgus monkey, in vivo, po, 50 mg FAE/monkey, Plasma concentration, 1.0 hr, 50 mg FAE/mL in 40% EtOH:40% PG:20% Glycerol, 50 mg FAE/monkey oral gavage, monkeys 117,118,119,AVG): 19.2 µg/mL
